Assay results from US7625948B2, “Ester compound and medicinal use thereof” (Japan Tobacco Inc., priority 2002, dated 2009).

Key:
[1] = biological target: T1, Microsomal triglyceride transfer protein (MTP) from bovine liver (Bos taurus, UniProt P55156); test: Test Example 1: inhibition of interliposomal triglyceride (TG) transfer activity by MTP (also used for metabolites in Test Example 8); type: biochemical; settings: MTP-mediated 14C-triolein transfer between liposomes, 37° C., one hour; read-out: Test Example 1 MTP inhibition IC50
T1 construct: from tissue; host or cells: bovine liver
T1 sequence (P55156 12-887): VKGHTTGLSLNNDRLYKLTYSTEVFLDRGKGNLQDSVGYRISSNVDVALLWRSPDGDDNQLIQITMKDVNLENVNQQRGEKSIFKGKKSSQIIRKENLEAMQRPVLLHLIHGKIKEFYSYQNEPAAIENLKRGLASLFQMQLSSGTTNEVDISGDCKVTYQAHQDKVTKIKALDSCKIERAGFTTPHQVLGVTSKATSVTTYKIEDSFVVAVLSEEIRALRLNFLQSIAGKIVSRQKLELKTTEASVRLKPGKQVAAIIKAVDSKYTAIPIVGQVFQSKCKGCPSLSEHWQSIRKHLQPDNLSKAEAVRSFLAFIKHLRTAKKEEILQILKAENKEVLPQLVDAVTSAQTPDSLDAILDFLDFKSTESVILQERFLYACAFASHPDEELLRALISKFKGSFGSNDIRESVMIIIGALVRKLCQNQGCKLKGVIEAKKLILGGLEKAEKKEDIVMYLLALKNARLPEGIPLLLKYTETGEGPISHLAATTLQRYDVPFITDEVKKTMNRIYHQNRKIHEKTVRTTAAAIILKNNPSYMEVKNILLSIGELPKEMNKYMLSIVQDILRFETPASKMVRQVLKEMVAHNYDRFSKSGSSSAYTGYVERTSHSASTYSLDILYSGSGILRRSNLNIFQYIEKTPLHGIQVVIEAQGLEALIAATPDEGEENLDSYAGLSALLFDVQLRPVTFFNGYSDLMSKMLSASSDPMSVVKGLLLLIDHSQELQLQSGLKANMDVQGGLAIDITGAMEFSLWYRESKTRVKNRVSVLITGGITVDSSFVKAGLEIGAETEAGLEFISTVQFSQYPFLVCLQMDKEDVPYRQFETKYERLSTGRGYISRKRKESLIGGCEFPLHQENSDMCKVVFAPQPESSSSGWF
T1 sequence (P05307 21-510 partner): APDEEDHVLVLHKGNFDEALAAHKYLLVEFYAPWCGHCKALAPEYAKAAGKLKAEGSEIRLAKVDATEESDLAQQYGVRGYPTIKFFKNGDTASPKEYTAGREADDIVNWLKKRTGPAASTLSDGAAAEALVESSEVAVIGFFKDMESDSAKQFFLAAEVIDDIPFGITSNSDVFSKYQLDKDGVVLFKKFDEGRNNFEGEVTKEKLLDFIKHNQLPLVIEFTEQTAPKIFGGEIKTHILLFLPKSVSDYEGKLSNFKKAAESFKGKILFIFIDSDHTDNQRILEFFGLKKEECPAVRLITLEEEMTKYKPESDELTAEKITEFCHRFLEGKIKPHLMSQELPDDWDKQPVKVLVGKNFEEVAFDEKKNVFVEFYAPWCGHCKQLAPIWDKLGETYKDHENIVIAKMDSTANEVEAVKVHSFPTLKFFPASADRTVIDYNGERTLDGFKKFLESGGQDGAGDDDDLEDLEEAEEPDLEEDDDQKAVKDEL
In short: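 Partially purified bovine liver MTP (DEAE chromatography) incubated 1 h at 37 °C, pH 7.4, with ^14C-triolein-labelled donor SUVs and unlabelled acceptor SUVs plus compound in DMSO. Acceptor radioactivity, blank-corrected, gave % inhibition versus DMSO; IC50 derived. Metabolites tested likewise.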

HepG2 cells = test: Test Example 2: inhibition of apolipoprotein B secretion from HepG2 cells, ELISA (also used for metabolites in Test Example 8); type: cell-based; settings: Homo sapiens, 24 hours, apo B in supernatant by ELISA, read-out: Test Example 2 Inhibition of apo B secretion IC50
In short: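 HepG2 cells cultured 24 h, then exposed 24 h to compounds or metabolites in medium with 0.5% DMSO. Secreted apo B in supernatant quantified by sandwich ELISA (HRP, ABTS, 405 nm) against purified human apo B standard; % inhibition vs DMSO group, IC50 derived.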

Syrian hamsters [2] = test: Test Example 3: olive oil-loading test (inhibition of fat absorption, plasma TG); type: in vivo; settings: Mesocricetus auratus, po; 100 mg/kg p.o.; plasma TG 4 hours after olive oil; read-out: Test Example 3 Inhibition of fat absorption after olive oil-loading in Hamster Inhibition rate (%)
Syrian hamsters [3] = test: as above; type: in vivo; settings: Mesocricetus auratus, po, plasma TG 4 hours after olive oil, read-out: Test Example 3 Inhibition of fat absorption after olive oil-loading in Hamster Inhibition rate (%); for inhibition in vivo at 3 mg/kg: 3 mg/kg p.o.
Experimental: Syrian hamsters (9-11 weeks of age) under non-fasted conditions were used in the test. Blood was collected previously from orbital venous plexus, and a sample was suspended in 0.5% methyl cellulose (vehicle) and the suspension was forced to be administered orally to the hamsters at a dose of 0.3, 1, 3 or 10 mg/2 mL/kg. Only vehicle in the same volume was administered to the control group. Olive oil (2 mL/kg) was forced to be administered orally 30 minutes after the administration of the sample, and blood was collected from orbital venous plexus 4 hours later. Plasma was recovered from the blood, and the amount of triglyceride (TG) in the plasma was determined by automatic analyzer (Hitachi Co.). The data was expressed in terms of ΔTG(mg/dL)=the value at 4th hr minus the value before administration. Inhibition rate (%) was calculated from the data obtained on the basis of the following equation.
Inhibition rate (%)=100×(1 minus ΔTG of sample group/ΔTG of control group).

Japanese white rabbits = test: Test Example 5: combination use test in cholesterol-loaded rabbit model (plasma cholesterol); type: in vivo; settings: 1 mg/kg in high cholesterol diet, from grouping to the 4th day
Experimental: Japanese white rabbits (male, 19 weeks of age, JW, purchased from Kitayama Labes Co., Ltd.) were fed previously in such a way that they were fed a high cholesterol diet (0.3% cholesterol+3% peanut oil-added RC-4, Product of Oriental Yeast Co., Ltd.) of 70 g/day under limited feeding for one day. The rabbits thus fed were used as a cholesterol-loaded rabbit model, and the grouping of such model was carried out in such a way that there might be no variation in the amount of plasma cholesterol among each group (five rabbits/group). […] The rabbits were fed 70 g of each diet every morning. Blood was collected from auricular artery 6 hours after the feeding on the 4th day of the administration, and cholesterol level in plasma was assayed. In the table, increased amount of plasma cholesterol during from the time of grouping to the 4th day was shown.

Row | SMILES | IC50 [1] | IC50 (HepG2 cells) | inhibition in vivo at 100 mg/kg (Syrian hamsters [2]) | inhibition in vivo at 10 mg/kg (Syrian hamsters [3]; 10 mg/kg p.o.) | inhibition in vivo at 3 mg/kg (Syrian hamsters [3]) | Increased amount of total cholesterol (Japanese white rabbits)
1 | CCOC(=O)C(COC(=O)Cc1ccc(NC(=O)c2ccccc2-c2ccc(C(F)(F)F)cc2)c(C)c1)(C(=O)OCC)c1ccccc1 [Example 1-3, 2-(2-{3-Methyl-4-[(4′-trifluoromethylbiphenyl-2-carbonyl)amino]phenyl}acetoxymethyl)-2-phenylmalonic acid diethyl ester] | 4.7 nM | 5.75 nM | 65% |  |  | 
2 | CCNC(=O)C(COC(=O)Cc1ccc(NC(=O)c2ccccc2-c2ccc(C(F)(F)F)cc2)c(C)c1)(C(=O)NCC)c1ccccc1 [Example 1-45] | 0.39 nM | 0.46 nM | 71% |  |  | 
3 | CC(C)CNC(=O)C(COC(=O)Cc1ccc(NC(=O)c2ccccc2-c2ccc(C(F)(F)F)cc2)cc1)(C(=O)NCC(C)C)c1ccccc1 [Example 1-66] | 16 nM | 9.3 nM | 52% |  |  | 
4 | CCCNC(=O)C(COC(=O)Cc1ccc(NC(=O)c2ccccc2-c2ccc(C(F)(F)F)cc2)c(C)c1)(C(=O)NCCC)c1ccccc1 [Example 1-72] | 0.44 nM | 2.7 nM | 54% |  |  | 
5 | CCCNC(=O)C(COC(=O)Cc1ccc(NC(=O)c2ccccc2-c2ccc(C(F)(F)F)cc2)c(OC)c1)(C(=O)NCCC)c1ccccc1 [Example 3-5] |  | 2.2 nM |  | 80% |  | 
6 | CCNC(=O)C(CCOC(=O)Cc1ccc(NC(=O)c2ccccc2-c2ccc(C(F)(F)F)cc2)c(OC(C)C)c1)(C(=O)NCC)c1ccccc1 [Example 3-11] |  | 0.36 nM |  |  | 75% | 
7 | CCC(C)(C)C(=O)O[C@H]1C[C@@H](C)C=C2C=C[C@H](C)[C@H](CC[C@@H]3C[C@@H](O)CC(=O)O3)[C@H]21 [Simvastatin, simvastatin, reference compound] |  |  |  |  |  | 48.6 mg/dL

Second part, led by results:

Row | IC50 [1] | IC50 (HepG2 cells) | SMILES | inhibition in vivo at 100 mg/kg (Syrian hamsters [2]) | inhibition in vivo at 10 mg/kg (Syrian hamsters [3]; 10 mg/kg p.o.) | inhibition in vivo at 3 mg/kg (Syrian hamsters [3]) | Increased amount of total cholesterol (Japanese white rabbits)
8 | 4 nM | 28 nM | CCNC(=O)C(CCOC(=O)Cc1cccc(NC(=O)c2ccccc2-c2ccc(C(F)(F)F)cc2)c1C)(C(=O)NCC)c1ccccc1 [Example 5-9] | 78% |  |  | 
9 | 1.3 nM | 5.1 nM | CCCNC(=O)C(CCOC(=O)Cc1cccc(NC(=O)c2ccccc2-c2ccc(C(F)(F)F)cc2)c1C)(C(=O)NCCC)c1ccccc1 [Example 5-11] | 64% |  |  | 
10 |  | 2.3 nM | CCNC(=O)C(COC(=O)Cc1ccc(NC(=O)c2ccccc2-c2ccc(C(F)(F)F)cc2)c(C(=O)OCC)c1)(C(=O)NCC)c1ccccc1 [Example 9-10] |  |  | 54% | 
11 |  | 0.53 nM | CCNC(=O)C(COC(=O)Cc1ccc(NC(=O)c2ccccc2-c2ccc(C(F)(F)F)cc2)c(C(=O)OC)c1)(C(=O)NCC)c1ccccc1 [Example 9-13] |  |  | 70% | 
